Experimental data reported in the OligoGym collection.
These antisense oligonucleotides have a phosphorothioate backbone; sugars and methylation of C are not fully specified.

How the values were obtained:
Conditions in all cases: ASO
MAP3K5 = molecular target: MAP3K5
BIRC5 = molecular target: BIRC5
MAP2K2 = molecular target: MAP2K2
RELA = molecular target: RELA
Further: test concentration or dose not given here.

With CTTGAGGTACCATGCTGGTG the remaining target (mRNA or protein) (fraction of control) (MAP3K5) was 0.36.

With CTTTCAAGACAAAACAGG the remaining target (mRNA or protein) (fraction of control) (BIRC5) was ≥ 1.

With GAACTATCTGATTGTCATGG the remaining target (mRNA or protein) (fraction of control) (MAP3K5) was 0.83.

GAAGCCGGGTGAGCGGGAAG gave a remaining target (mRNA or protein) (fraction of control) (MAP3K5) of 0.34.

For GACTTAGAATGGCTTTGT, the remaining target (mRNA or protein) (fraction of control) (BIRC5) was 0.63.

For GAGGAGCGGCCAGCATGT, the remaining target (mRNA or protein) (fraction of control) (BIRC5) was 0.53.

With GAGGTACGCCAAGCCCCG the remaining target (mRNA or protein) (fraction of control) (MAP2K2) was 0.11.

Work on GATGTACGGCGAGTTGCA yielded a remaining target (mRNA or protein) (fraction of control) (MAP2K2) of 0.81.

In the case of GCACGATCACATGAATGTTA, the remaining target (mRNA or protein) (fraction of control) (MAP3K5) is reported as 0.58.

With GCCGAGATGACCTCCAGA the remaining target (mRNA or protein) (fraction of control) (BIRC5) was 0.34.

Work on GCCGGCTGACAAGTCGGCTC yielded a remaining target (mRNA or protein) (fraction of control) (MAP3K5) of 0.43.

In the case of GCGATTCAAATCTGGCGG, the remaining target (mRNA or protein) (fraction of control) (BIRC5) is reported as ≥ 1.

With GCTTCTTGACAGAAAGGA the remaining target (mRNA or protein) (fraction of control) (BIRC5) was 0.65.

Sequence GGATGGTGCAGAAGCCCGAG has a remaining target (mRNA or protein) (fraction of control) (MAP3K5) of 0.5.

GGCCTCGCTCTCGGCCACCA was tested, and the remaining target (mRNA or protein) (fraction of control) (MAP3K5) was 0.03.

Work on GGCGCAGCCCTCCAAGAA yielded a remaining target (mRNA or protein) (fraction of control) (BIRC5) of 0.62.

GGCTGACAGACACACGGC showed a remaining target (mRNA or protein) (fraction of control) (BIRC5) of 0.59.

GGTAGGGTTGATGGTGAG was tested, and the remaining target (mRNA or protein) (fraction of control) (MAP2K2) was 0.56.

In the case of GGTCGTCATCTGGCTCCC, the remaining target (mRNA or protein) (fraction of control) (BIRC5) is reported as 0.64.

GGTGCTCTCCGCAGGGTG gave a remaining target (mRNA or protein) (fraction of control) (MAP2K2) of 0.2.

GGTTAATTCTTCAAACTG was tested, and the remaining target (mRNA or protein) (fraction of control) (BIRC5) was ≥ 1.

Sequence GGTTCTTGATGAGGCATT has a remaining target (mRNA or protein) (fraction of control) (MAP2K2) of 0.31.

Sequence GTCACTGTAGAAGGCCCC has a remaining target (mRNA or protein) (fraction of control) (MAP2K2) of 0.38.

With GTGCATGATCTGGTGCTT the remaining target (mRNA or protein) (fraction of control) (MAP2K2) was 0.24.

GTGCCCTGCAACCGCTCC was tested, and the remaining target (mRNA or protein) (fraction of control) (MAP2K2) was 0.14.

GTGTCCTCAGCTGGAAGG gave a remaining target (mRNA or protein) (fraction of control) (MAP2K2) of 0.61.

GTTCACGAGGATGTTGGA was tested, and the remaining target (mRNA or protein) (fraction of control) (MAP2K2) was 0.82.

With GTTTTGTTTTGTAACCTA the remaining target (mRNA or protein) (fraction of control) (MAP2K2) was 0.72.

TAACCTAAGGAAGCAGAG was tested, and the remaining target (mRNA or protein) (fraction of control) (MAP2K2) was 0.33.

In the case of TACCTTCCGACGGCCAGC, the remaining target (mRNA or protein) (fraction of control) (MAP2K2) is reported as 0.18.

TACGCCAGACTTCAGCCC gave a remaining target (mRNA or protein) (fraction of control) (BIRC5) of 0.99.

TCACCCCGAAGTCACACA gave a remaining target (mRNA or protein) (fraction of control) (MAP2K2) of 0.56.

For TCAGATTCAACAGGCACC, the remaining target (mRNA or protein) (fraction of control) (BIRC5) was ≥ 1.

TCATCGTCTTTGAGTTCG showed a remaining target (mRNA or protein) (fraction of control) (MAP2K2) of 0.45.

Sequence TCCACCAGGTTTGCCTCG has a remaining target (mRNA or protein) (fraction of control) (MAP2K2) of 0.14.

With TCCAGCTCCTTGAAGCAG the remaining target (mRNA or protein) (fraction of control) (BIRC5) was 0.68.

For TCCATCCCGTGACCGCTG, the remaining target (mRNA or protein) (fraction of control) (MAP2K2) was 0.18.

TCCCTCACTTCTCACCTG showed a remaining target (mRNA or protein) (fraction of control) (BIRC5) of 0.71.

For TCCGCCTCCGTGCTCATCTC, the remaining target (mRNA or protein) (fraction of control) (MAP3K5) was 0.12.

Sequence TCCGTGCTCATCTCTCCGGG has a remaining target (mRNA or protein) (fraction of control) (MAP3K5) of 0.17.

With TCGCAGTTTCCTCAAATT the remaining target (mRNA or protein) (fraction of control) (BIRC5) was 0.63.

TCTAATGTTCAGGATTATTT was tested, and the remaining target (mRNA or protein) (fraction of control) (MAP3K5) was ≥ 1.

Work on TCTCCTCGGGAATCCTCT yielded a remaining target (mRNA or protein) (fraction of control) (MAP2K2) of 0.43.

In the case of TCTCTCCGGGCCGGGCAGCA, the remaining target (mRNA or protein) (fraction of control) (MAP3K5) is reported as ≥ 1.

With TCTGCTTTCAGTGTCCGTGA the remaining target (mRNA or protein) (fraction of control) (MAP3K5) was 0.21.

For TCTGGAAACTGTGGATGC, the remaining target (mRNA or protein) (fraction of control) (RELA) was ≥ 1.

For TCTTATTGTTGGTTTCCT, the remaining target (mRNA or protein) (fraction of control) (BIRC5) was ≥ 1.

Work on TCTTGGCTCTTTCTCTGT yielded a remaining target (mRNA or protein) (fraction of control) (BIRC5) of 0.66.

TCTTTCAGCACCTGGTCC was tested, and the remaining target (mRNA or protein) (fraction of control) (MAP2K2) was 0.48.

Sequence TGAGAAAGGGCTGCCAGG has a remaining target (mRNA or protein) (fraction of control) (BIRC5) of 0.54.

Sequence TGAGCAACAGTCAAGTCTGT has a remaining target (mRNA or protein) (fraction of control) (MAP3K5) of 0.56.

Work on TGCCCAGAAGGAAACACC yielded a remaining target (mRNA or protein) (fraction of control) (RELA) of 0.66.

TGCTCATCTCTCCGGGCCGG gave a remaining target (mRNA or protein) (fraction of control) (MAP3K5) of 0.4.

TGGTTTGTGAGCATCTTC gave a remaining target (mRNA or protein) (fraction of control) (MAP2K2) of 0.29.

TGTATCTGGCAGGTACTG was tested, and the remaining target (mRNA or protein) (fraction of control) (RELA) was ≥ 1.

With TGTCAACCCCTTCATGAAGC the remaining target (mRNA or protein) (fraction of control) (MAP3K5) was 0.19.

With TGTCCTTTTACGTTTCTC the remaining target (mRNA or protein) (fraction of control) (RELA) was 0.74.

TGTGCTATTCTGTGAATT showed a remaining target (mRNA or protein) (fraction of control) (BIRC5) of 0.8.

For TGTGTTCCATGCAAATGC, the remaining target (mRNA or protein) (fraction of control) (MAP2K2) was 0.75.

In the case of TGTTGTTAAACAGTAGAG, the remaining target (mRNA or protein) (fraction of control) (BIRC5) is reported as ≥ 1.

TTCGGTTCACTCGGCAGA was tested, and the remaining target (mRNA or protein) (fraction of control) (RELA) was ≥ 1.

Work on TTCGTCCGCCTCCGTGCTCA yielded a remaining target (mRNA or protein) (fraction of control) (MAP3K5) of 0.18.

TTCTAAAGTCTCTACCAGCT showed a remaining target (mRNA or protein) (fraction of control) (MAP3K5) of 0.24.

For TTCTGCACCTTGTCACAC, the remaining target (mRNA or protein) (fraction of control) (RELA) was 0.37.

For TTCTTGAATGTAGAGATG, the remaining target (mRNA or protein) (fraction of control) (BIRC5) was ≥ 1.

Work on TTGGCTTTCTGGGTGAGA yielded a remaining target (mRNA or protein) (fraction of control) (MAP2K2) of 0.83.

Work on TTGGTGGTATCTGTGCTC yielded a remaining target (mRNA or protein) (fraction of control) (RELA) of 0.53.

For TTTCGAAGTCATCGTCTT, the remaining target (mRNA or protein) (fraction of control) (MAP2K2) was 0.56.

TTTGAAAATGTTGATCTC was tested, and the remaining target (mRNA or protein) (fraction of control) (BIRC5) was 0.92.
